Among the data in US7189850B2, “Triaza-spiropiperidine derivatives” (Hoffmann-La Roche Inc., priority 2003, dated 2007) are IC50 and melting point values, retold here.

For one data set, the target named is T1, mGlyT-1b (Mus musculus, UniProt P28571).
T1 sequence (P28571 1-651 isoform P28571-2): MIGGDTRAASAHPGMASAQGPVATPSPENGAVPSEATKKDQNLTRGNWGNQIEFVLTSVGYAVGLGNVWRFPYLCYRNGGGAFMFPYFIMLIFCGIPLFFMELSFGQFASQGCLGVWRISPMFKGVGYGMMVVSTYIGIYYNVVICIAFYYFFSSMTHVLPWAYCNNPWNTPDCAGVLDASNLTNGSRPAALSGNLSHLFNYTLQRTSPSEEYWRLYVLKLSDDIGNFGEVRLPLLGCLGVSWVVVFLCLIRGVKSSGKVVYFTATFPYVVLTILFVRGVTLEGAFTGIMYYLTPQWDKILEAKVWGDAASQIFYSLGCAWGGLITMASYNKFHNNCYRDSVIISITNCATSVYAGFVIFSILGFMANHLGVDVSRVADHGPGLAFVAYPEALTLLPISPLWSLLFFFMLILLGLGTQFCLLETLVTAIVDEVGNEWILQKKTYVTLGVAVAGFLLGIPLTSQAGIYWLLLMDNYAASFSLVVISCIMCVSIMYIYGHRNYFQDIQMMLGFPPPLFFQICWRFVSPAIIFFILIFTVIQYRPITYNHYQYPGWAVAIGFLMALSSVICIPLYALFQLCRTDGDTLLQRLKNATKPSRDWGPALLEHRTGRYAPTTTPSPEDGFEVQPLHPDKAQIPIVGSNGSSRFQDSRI
The data set can be described thus: Glycine uptake inhibition assay (mGlyT-1b). In kind it is cell-based.
Conditions: not given
Take `O=C1NCN(c2ccc(F)cc2)C12CCN([C@H]1CCCC[C@H]1c1ccc(Cl)cc1)CC2` (racemic) [Example 17, (rac,cis)-8-[2-(4-Chloro-phenyl)-cyclohexyl]-1-(4-fluoro-phenyl)-1,3,8-triaza-spiro[4.5]decan-4-one]: 74 nM corresponded to half-maximal inhibition (IC50). Turning to `Cc1ccc(C2CCCCC2N2CCC3(CC2)C(=O)NCN3c2ccc(F)cc2)cc1` (racemic) [Example 22, (rac,cis)-1-(4-Fluoro-phenyl)-8-(2-p-tolyl-cyclohexyl)-1,3,8-triaza-spiro[4.5]decan-4-one], half-maximal inhibition (IC50) was put at 29 nM. On the same count and under the same terms, as for `O=C1NCN(c2ccc(F)cc2)C12CCN(C1CCCCC1c1ccc(F)cc1)CC2` (racemic) [Example 24, (rac,cis)-1-(4-Fluoro-phenyl)-8-[2-(4-fluoro-phenyl)-cyclohexyl]-1,3,8-triaza-spiro[4.5]decan-4-one], the figure is 67 nM. Still for that read-out and setting: as for `CC(C)CCN1CNC(=O)C12CCN(C1CCCCC1c1ccccc1)CC2` (racemic) [Example 54, (rac,cis)-1-(3-Methyl-butyl)-8-(2-phenyl-cyclohexyl)-1,3,8-triaza-spiro[4.5]decan-4-one], the figure is 52 nM; as for `O=C1NCN(c2ccc(Cl)c(Cl)c2)C12CCN(C1CCCCC1c1ccccc1)CC2` (racemic) [Example 59, (rac,cis)-1-(3,4-Dichloro-phenyl)-8-(2-phenyl-cyclohexyl)-1,3,8-triaza-spiro[4.5]decan-4-one], 32 nM; as for `O=C1NCN(c2ccccc2)C12CCN(C1CCCCC1(O)c1ccccc1)CC2` (racemic) [Example 74, (rac,cis)-8-(2-Hydroxy-2-phenyl-cyclohexyl)-1-phenyl-1,3,8-triaza-spiro[4.5]decan-4-one], 44 nM. On to `O=C1NCN(c2ccccc2)C12CCN(C1CCCCC1(O)c1ccc(F)cc1)CC2` (racemic) [Example 75, (rac,cis)-8-[2-(4-Fluoro-phenyl)-2-hydroxy-cyclohexyl]-1-phenyl-1,3,8-triaza-spiro[4.5]decan-4-one], for which the IC50 (usually the concentration needed to halve the response being measured) was 41 nM.

Compound `Cc1ccccc1C1(O)CCCCC1N1CCC2(CC1)C(=O)NCN2c1ccccc1` (racemic) [Example 76, (rac,cis)-8-(2-Hydroxy-2-o-tolyl-cyclohexyl)-1-phenyl-1,3,8-triaza-spiro[4.5]decan-4-one] yielded a half-maximal inhibitory concentration (IC50) of 50 nM. Same read-out and setting: under `O=C1NCN(c2ccccc2)C12CCN(C1CCCCC1(O)c1ccncc1)CC2` (racemic) [Example 77, (rac,cis) 8-(2-Hydroxy-2-pyridin-4-yl-cyclohexyl)-1-phenyl-1,3,8-triaza-spiro[4.5]decan-4-one] stands 62 nM. On to `O=C1NCN(c2ccccc2)C12CCN(C1CCCCC1(O)c1ccc(Cl)cc1)CC2` (racemic) [Example 78, (rac,cis)-8-[2-(4-Chloro-phenyl)-2-hydroxy-cyclohexyl]-1-phenyl-1,3,8-triaza-spiro[4.5]decan-4-one], for which the IC50 was determined as 86 nM. Same read-out and setting: as for `O=C1NCN(c2ccc(F)cc2)C12CCN(C1CCCCC1(O)c1ccc(F)cc1)CC2` (racemic) [Example 87, (rac,cis)-1-(4-Fluoro-phenyl)-8-[2-(4-fluoro-phenyl)-2-hydroxy-cyclohexyl]-1,3,8-triaza-spiro[4.5]decan-4-one], the figure is 24 nM; as for `O=C1NCN(c2ccc(F)cc2)C12CCN(C1CCCCC1(O)c1ccc(Cl)cc1)CC2` (racemic) [Example 88, (rac,cis)-8-[2-(4-Chloro-phenyl)-2-hydroxy-cyclohexyl]-1-(4-fluoro-phenyl)-1,3,8-triaza-spiro[4.5]decan-4-one], 60 nM.

`O=C1NCN(c2ccc(Cl)cc2)C12CCN(C1CCCCC1(O)c1ccc(F)cc1)CC2` (racemic) [Example 89, (rac,cis)-1-(4-Chloro-phenyl)-8-[2-(4-fluoro-phenyl)-2-hydroxy-cyclohexyl]-1,3,8-triaza-spiro[4.5]decan-4-one] returned an IC50 of 15 nM. The same measure, in the same setting: as for `O=C1NCN(c2ccc(Cl)cc2)C12CCN(C1CCCCC1(O)c1ccc(Cl)cc1)CC2` (racemic) [Example 90, (rac,cis)-1-(4-Chloro-phenyl)-8-[2-(4-chloro-phenyl)-2-hydroxy-cyclohexyl]-1,3,8-triaza-spiro[4.5]decan-4-one], the figure is 43 nM; as for `COc1ccc(N2CNC(=O)C23CCN(C2CCCCC2(O)c2ccc(Cl)cc2)CC3)cc1` (racemic) [Example 92, (rac,cis)-8-[2-(4-Chloro-phenyl)-2-hydroxy-cyclohexyl]-1-(4-methoxy-phenyl)-1,3,8-triaza-spiro[4.5]decan-4-one], 99 nM; as for `O=C1NCN(c2ccccc2)C12CCN(C1COCCC1(O)c1ccccc1)CC2` (racemic) [Example 99, (rac,cis)-8-(4-Hydroxy-4-phenyl-tetrahydro-pyran-3-yl)-1-phenyl-1,3,8-triaza-spiro[4.5]decan-4-one], 58 nM. The same measure, in the same setting: as for `O=C1NCN(c2ccccc2)C12CCN(C1CCOCC1(O)c1ccccc1)CC2` (racemic) [Example 100, (rac,cis)-8-(3-Hydroxy-3-phenyl-tetrahydro-pyran-4-yl)-1-phenyl-1,3,8-triaza-spiro[4.5]decan-4-one], the figure is 90 nM.

As to `O=C1NCN(c2ccccc2)C12CCN(C1CCCCC1(O)c1ccccc1)CC2` (racemic) [Example 101, (rac,trans)-8-(2-Hydroxy-2-phenyl-cyclohexyl)-1-phenyl-1,3,8-triaza-spiro[4.5]decan-4-one], the IC50 was determined as 56 nM.

Staying with this data set, now noted: Flp-in-CHO cells stably transfected with mGlyT-1b cDNA; [3H]-glycine 60 nM and 25 μM non-radioactive glycine; 20 min preincubation at 22° C.; read-out: IC50 at GlyT-1 (inhibition of glycine uptake).
As to `Cc1ccc(N2CNC(=O)C23CCN(C2CCCCC2(O)c2ccc(F)cc2)CC3)cc1` (racemic) [Example 91, (rac,cis)-8-[2-(4-Fluoro-phenyl)-2-hydroxy-cyclohexyl]-1-p-tolyl-1,3,8-triaza-spiro[4.5]decan-4-one], the IC50 worked out at 39 nM.

Tested on in a further data set: not given
Test: not given
Conditions: not given
On to `O=C1NCN(c2ccccc2)C12CCN(C1CCCCC1c1ccccc1)CC2` (racemic) [Example 1, (rac,cis)-1-Phenyl-8-(2-phenyl-cyclohexyl)-1,3,8-triaza-spiro[4.5]decan-4-one], for which the melting point (in general, the temperature of the solid-liquid transition) lay in the range of 205 to 208 °C.

In the case of `Cc1ccc(C2CCCCC2N2CCC3(CC2)C(=O)NCN3c2ccccc2)cc1` (racemic) [Example 8, (rac,cis)-1-Phenyl-8-(2-p-tolyl-cyclohexyl)-1,3,8-triaza-spiro[4.5]decan-4-one], the melting point was 174 to 176 °C. Turning to `O=C1NCN(c2ccccc2)C12CCN([C@H]1CCCC[C@H]1c1ccc(F)cc1)CC2` (racemic) [Example 10, (rac,cis)-8-[2-(4-Fluoro-phenyl)-cyclohexyl]-1-phenyl-1,3,8-triaza-spiro[4.5]decan-4-one], the melting point was 198 to 200 °C.

The compound `O=C1NCN(c2ccccc2)C12CCN([C@H]1CCCC[C@H]1c1ccc(Cl)cc1)CC2` (racemic) [Example 11, (rac,cis)-8-[2-(4-Chloro-phenyl)-cyclohexyl]-1-phenyl-1,3,8-triaza-spiro[4.5]decan-4-one] gave a melting point of 204 to 206 °C.

`O=C1NCN(c2ccccc2)C12CCN([C@H]1CCCC[C@H]1c1ccc(Cl)c(Cl)c1)CC2` (racemic) [Example 13, (rac,cis)-8-[2-(3,4-Dichloro-phenyl)-cyclohexyl]-1-phenyl-1,3,8-triaza-spiro[4.5]decan-4-one] registered a melting point of 198 to 200 °C.

Regarding `O=C1NCN(c2ccccc2)C12CCN(C1CCCCC1c1ccccc1)CC2` (racemic) [Example 68, (rac,trans)-1-Phenyl-8-(2-phenyl-cyclohexyl)-1,3,8-triaza-spiro[4.5]decan-4-one], the melting point was in the range of 254 to 256 °C.
